# Several values for one entry are separate records, joined by “and”; a condition that tells them apart may be missing. Equal entries are not always repeated.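 Growth conditions: 96-well plates. Treatment: test compound, 48 hours, 5 concentrations. Analysis: linear interpolation between bracketing concentrations; unreached endpoints set to highest concentration. At the GI50, growth is halved. At the TGI there is no net growth.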
# Assays:
# Assay in all cases: growth of human tumour cells (NCI), 48 h
# [1] = system: 786-0 renal
# [2] = system: HOP-92 NSCLC
# [3] = system: A549 NSCLC
# [4] = system: NCI-H522 lung
# [5] = system: SK-OV-3 ovarian
# [6] = system: IGROV1 ovarian
# [7] = system: NCI-H460 lung
# [8] = system: OVCAR-4 ovarian
# [9] = system: UO-31 renal
# [10] = system: HCT-116 colon
SMILES,TGI [1] [µM],TGI [2] [µM],TGI [3] [µM],TGI [4],TGI [5] [µM],TGI [6] [µM],TGI [7] [µM],TGI [8] [µM],TGI [9] [µM],TGI [10] [µM],GI50 [3] [µM],GI50 [4],GI50 [6] [µM],GI50 [7] [µM],GI50 [8] [µM],GI50 [9] [µM],GI50 [10] [µM],GI50 [1] [µM],GI50 [2] [µM],GI50 [5] [µM]
C1CC2=C(C1)C1=S(S2)SC2=C1CCC2,> 100,> 100,> 100,> 100 µM,> 100,> 100,> 100,> 100,> 100,> 100,–,–,–,–,–,–,–,–,–,–
CN(C)CCCCCNc1c2ccccc2nc2cccc([N+](=O)[O-])c12,0.00798,0.00895,0.00235,0.0029 µM and 0.00186 µM,> 0.0245,0.00655,–,0.00236,0.0425,0.012,0.00571,0.00154 µM and 0.000466 µM,0.00621,0.00145,0.00339,0.0125,0.00583,–,–,–
O=c1c2cccnc2ncn1CCCN1CCCC1,> 100,> 100,> 100,> 100 µM,> 100,> 100,> 100,> 100,> 100,> 100,–,–,–,–,–,–,–,–,–,–
CCn1c(=N)sc2nc3ccccc3n2c1=O,> 100,> 100,> 100,> 100 µM,> 100,> 100,> 100,> 100,33.3,> 100,–,–,–,–,–,–,–,–,–,–
CC1(C)C(=O)C(=Cc2ccco2)C1=O,> 100,> 100,> 100,> 100 µM,> 100,> 100,> 100,> 100,> 100,> 100,–,–,–,–,–,–,–,–,–,–
O=C(Nc1ccc2c(c1)OCCO2)C(=O)c1c[nH]c2ccccc12,44.9,11.1,> 100,16.3 µM,8.62,> 72.4,> 100,> 100,> 71.4,> 20.5,1.18,0.536 µM,3.09,1.3,3.88,5.11,1.25,4.28,1.34,1.5
Clc1ccc(OCc2nnc3n2N=C(c2ccccc2)CS3)c(Cl)c1,> 100,> 100,> 100,> 100 µM,> 100,> 100,> 100,> 100,8.46,> 100,–,–,–,–,–,–,–,–,–,–
COc1cc2nc(-c3cccc4cccnc34)nc(NC3CCN(Cc4ccccc4)CC3)c2cc1OC,2.69,3.36,1.94,3.98 µM,3.22,2.31,1.23,2.71,2.88,0.338,0.56,1.45 µM,0.93,0.351,1.11,1.43,0.158,1.2,1.59,1.56
COC(=O)/C(=C/c1ccc(OC)cc1)C(C(=O)O)=C1CCCCC1,> 100,> 100,> 100,> 100 µM,> 100,> 100,> 100,> 100,> 100,> 100,–,–,–,–,–,–,–,–,–,–
C=C(CN1c2ccccc2Sc2ccccc21)c1ccc(C(=O)Nc2ccccc2N)cc1,> 100,> 100,> 100,> 100 µM,> 100,> 100,> 100,97.3,> 100,> 100,11.4,1.63 µM,28.1,17.7,12,2.03,11.1,0.832,> 47.9,11.7
COC(=O)CC(=O)NCC1=CCC(=O)CC1,> 100,> 100,> 100,> 100 µM,> 100,> 100,> 100,> 100,> 100,> 100,–,–,–,–,–,–,–,–,–,–
CC[C@@H](O)C[C@H]1CCC[C@@]2(C[C@@H]3OC(=O)/C=C/[C@@](C)(O)[C@@H](O)[C@H](C)[C@@H](O)[C@H](OC4CCC(N(C)C)C(C)O4)[C@@H](O)[C@](C)(O)CCCCC/C=C/[C@@H]4CC(C)(C)O[C@@]4(O)C[C@H](O2)[C@H]3C)O1 (stereo partly specified),34.1,37.2,20.5,12.3 µM,29.1,21.8,46.8,25.7,18.1,26.2,–,–,–,–,–,–,–,–,–,–
CCN(CC)c1ccc(N=Nc2ccc(-c3nc4cccn(C)c-4n3)cc2)cc1,17,33,25.6,19.9 µM,43.5,25,17.3,31.2,41,15.6,–,–,–,–,–,–,–,–,–,–
CCOC(=O)C#Cc1c(C(=O)OCC)nnn1[C@@H]1O[C@H](CO)[C@H]2OC3(CCCCC3)O[C@H]21,8.62,5.27,35.8,4.09 µM,33.3,36.7,28.9,4.48,3.28,3.48,19.9,1.96 µM,15.5,13.4,2.04,1.67,1.92,2.88,2.23,17.7
CCC(C)(O)c1cn(-c2ccc(S(=O)(=O)O)cc2)nn1 (stereo unspecified),> 100,> 100,> 100,> 100 µM,> 100,> 100,> 100,> 100,> 100,> 100,–,–,–,–,–,–,–,–,–,–
COC(=O)CCC(=O)N1CC1C (stereo unspecified),> 100,> 100,> 100,> 100 µM,> 100,> 100,> 100,> 100,> 100,> 100,–,–,–,–,–,–,–,–,–,–
Cc1noc(C)c1-c1cnc2c(-c3ccc(C(=O)O)cc3)cn([C@@H](C)c3ccccn3)c2c1,> 100,> 100,> 100,> 49.7 µM,32.5,> 100,> 100,> 100,> 55,> 100,3.25,0.231 µM,0.607,6.07,0.772,0.102,1.14,2.13,0.212,0.635
CC(=O)OC1C(O[C@H]2CC[C@]34O[C@]35CC[C@]3(C)C(C6(C)CC[C@@H](C(C)(C)O)O6)[C@@H](O)CC3(C)[C@@H]5CC(OC3OC(CO)C(O)C(O)C3O)C4C2(C)C)OCC(O)C1O (stereo partly specified),> 60.9,> 100,> 100,> 100 µM,> 100,> 100,> 100,> 100,> 100,> 100,–,–,–,–,–,–,–,–,–,–
C/C(CC(=O)Nc1ccc(NC(=O)C/C(C)=N\NC(N)=O)cc1)=N/NC(N)=O,> 100,> 100,> 100,> 100 µM,> 100,> 100,> 100,> 100,> 100,> 100,–,–,–,–,–,–,–,–,–,–
CCc1nn2ncccc2c1-c1ccnc(NC2CC2)n1,> 25,> 25,> 25,> 25 µM,> 25,> 25,> 25,> 25,> 25,> 25,> 25,> 25 µM,> 25,> 25,> 25,> 24,> 25,> 25,> 6.73,> 25

# — PubChem BioAssay (NCI)
